Assay results from patent US20160122342A1, “ENHANCER OF ZESTE HOMOLOG 2 INHIBITORS” (GLAXOSMITHKLINE INTELLECTUAL PROPERTY (NO.2) LIMITED, priority 2013, published 2016).
Counter-ions that a name gives are not always drawn.

What follows are molecules tested against T1, EZH2 within the PRC2 complex (Homo sapiens, UniProt Q15910) (assay: Assay Protocol 1: EZH2 methyltransferase scintillation proximity assay, mononucleosome substrate). Settings: not given.
T1 construct: FLAG; made in house; host or cells: Sf9 cells
T1 sequence (Q15910 whole entry): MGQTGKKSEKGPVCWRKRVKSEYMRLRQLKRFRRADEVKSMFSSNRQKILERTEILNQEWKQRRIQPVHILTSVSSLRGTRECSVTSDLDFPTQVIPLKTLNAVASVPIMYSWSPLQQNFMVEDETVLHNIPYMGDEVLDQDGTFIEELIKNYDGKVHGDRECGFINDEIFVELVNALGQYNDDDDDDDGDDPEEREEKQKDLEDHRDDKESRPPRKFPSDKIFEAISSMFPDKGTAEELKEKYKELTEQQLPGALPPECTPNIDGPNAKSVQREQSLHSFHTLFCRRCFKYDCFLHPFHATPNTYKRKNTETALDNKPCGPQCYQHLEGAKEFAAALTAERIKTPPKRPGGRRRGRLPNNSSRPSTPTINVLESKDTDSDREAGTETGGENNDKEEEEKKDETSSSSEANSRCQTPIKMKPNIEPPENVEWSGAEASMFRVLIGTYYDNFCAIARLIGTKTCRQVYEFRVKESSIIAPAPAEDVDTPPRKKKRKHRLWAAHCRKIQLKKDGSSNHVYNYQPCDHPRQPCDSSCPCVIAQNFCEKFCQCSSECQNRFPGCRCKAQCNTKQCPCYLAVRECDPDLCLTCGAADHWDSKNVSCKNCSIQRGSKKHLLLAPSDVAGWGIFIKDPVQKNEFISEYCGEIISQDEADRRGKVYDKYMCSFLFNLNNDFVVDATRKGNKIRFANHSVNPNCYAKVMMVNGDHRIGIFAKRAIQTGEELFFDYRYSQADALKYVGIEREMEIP
T1 sequence (O75530 whole entry partner): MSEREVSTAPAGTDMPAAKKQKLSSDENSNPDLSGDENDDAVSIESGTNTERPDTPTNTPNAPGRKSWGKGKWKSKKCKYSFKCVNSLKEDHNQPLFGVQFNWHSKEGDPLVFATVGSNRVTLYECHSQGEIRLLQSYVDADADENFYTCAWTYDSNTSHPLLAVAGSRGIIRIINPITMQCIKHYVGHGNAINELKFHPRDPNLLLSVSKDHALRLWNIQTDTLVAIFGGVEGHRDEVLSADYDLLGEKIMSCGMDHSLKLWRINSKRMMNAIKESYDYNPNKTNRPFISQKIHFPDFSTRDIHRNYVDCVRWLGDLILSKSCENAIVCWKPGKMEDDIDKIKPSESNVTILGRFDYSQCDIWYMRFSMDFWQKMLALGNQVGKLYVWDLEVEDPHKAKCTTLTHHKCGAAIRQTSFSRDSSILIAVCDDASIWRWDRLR
T1 sequence (Q15022 whole entry partner): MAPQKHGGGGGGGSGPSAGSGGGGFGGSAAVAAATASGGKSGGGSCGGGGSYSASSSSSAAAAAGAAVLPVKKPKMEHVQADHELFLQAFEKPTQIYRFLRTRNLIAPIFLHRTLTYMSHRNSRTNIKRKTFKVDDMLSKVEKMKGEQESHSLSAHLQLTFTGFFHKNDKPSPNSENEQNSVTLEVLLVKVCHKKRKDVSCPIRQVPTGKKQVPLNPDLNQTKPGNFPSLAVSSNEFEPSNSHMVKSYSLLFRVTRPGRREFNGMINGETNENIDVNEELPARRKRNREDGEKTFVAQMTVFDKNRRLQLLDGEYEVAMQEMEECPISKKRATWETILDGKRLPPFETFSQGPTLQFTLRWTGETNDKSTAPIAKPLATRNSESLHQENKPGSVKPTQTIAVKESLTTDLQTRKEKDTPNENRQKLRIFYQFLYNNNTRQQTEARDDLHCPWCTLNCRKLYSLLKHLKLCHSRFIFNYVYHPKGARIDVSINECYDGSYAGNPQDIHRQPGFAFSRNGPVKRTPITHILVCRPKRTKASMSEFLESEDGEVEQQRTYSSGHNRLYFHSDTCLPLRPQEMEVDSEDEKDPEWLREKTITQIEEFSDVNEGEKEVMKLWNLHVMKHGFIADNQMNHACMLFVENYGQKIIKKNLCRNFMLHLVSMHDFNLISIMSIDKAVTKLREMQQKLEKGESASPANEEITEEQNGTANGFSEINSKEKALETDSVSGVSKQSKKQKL
T1 sequence (Q09028 whole entry partner): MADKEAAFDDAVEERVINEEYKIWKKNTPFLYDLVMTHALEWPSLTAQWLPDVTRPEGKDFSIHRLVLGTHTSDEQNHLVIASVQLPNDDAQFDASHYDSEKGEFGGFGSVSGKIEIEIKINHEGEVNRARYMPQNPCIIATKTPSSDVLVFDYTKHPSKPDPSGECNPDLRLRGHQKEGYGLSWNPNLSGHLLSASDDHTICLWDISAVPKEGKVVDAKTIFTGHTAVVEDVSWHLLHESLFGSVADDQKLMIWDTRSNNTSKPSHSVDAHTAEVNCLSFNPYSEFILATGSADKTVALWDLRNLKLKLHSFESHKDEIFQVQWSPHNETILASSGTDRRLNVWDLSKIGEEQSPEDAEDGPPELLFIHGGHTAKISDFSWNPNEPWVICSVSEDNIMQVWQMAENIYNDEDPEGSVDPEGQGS
T1 sequence (Q6ZN18 whole entry partner): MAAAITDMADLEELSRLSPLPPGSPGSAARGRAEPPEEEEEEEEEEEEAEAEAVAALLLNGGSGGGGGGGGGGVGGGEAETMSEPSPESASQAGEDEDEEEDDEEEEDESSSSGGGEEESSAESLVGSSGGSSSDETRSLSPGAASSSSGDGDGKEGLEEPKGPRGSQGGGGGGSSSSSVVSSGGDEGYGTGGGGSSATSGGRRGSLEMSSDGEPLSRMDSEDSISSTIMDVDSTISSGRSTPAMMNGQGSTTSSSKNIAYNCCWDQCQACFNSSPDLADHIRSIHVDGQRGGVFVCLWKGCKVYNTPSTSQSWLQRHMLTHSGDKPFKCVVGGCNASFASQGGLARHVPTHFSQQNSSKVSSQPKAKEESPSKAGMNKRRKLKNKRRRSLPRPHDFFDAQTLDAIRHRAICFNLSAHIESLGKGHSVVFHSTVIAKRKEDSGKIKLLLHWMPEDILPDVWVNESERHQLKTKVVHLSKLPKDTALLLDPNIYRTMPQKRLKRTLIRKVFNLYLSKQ
Assay type: biochemical
Description: Compounds contained herein were evaluated for their ability to inhibit the methyltransferase activity of EZH2 within the PRC2 complex. […] Mononucleosomes were captured on SPA beads and the resulting signal is read on a ViewLux plate reader. • 1. Prepare 10 mM stock of compounds from solid in 100% DMSO. • 2. […] Dispense 100 nL of compound from the dilution plate into reaction plates (Grenier Bio-One, 384-well, Cat#784075). Prepare the following solutions: • 1. 50 mM Tris-HCl, pH 8: Per 1 L of base buffer, combine 1 M Tris-HCl, pH 8 (50 mL) and distilled water (950 mL). • 2. 1× Assay Buffer: […] SPA Bead Suspension: […] Per 10 mL of 2× Substrate Solution, combine 1× Assay Buffer (9728.55 uL), 800 ug/mL mononucleosomes (125 uL), 1 mM cold SAM (4 uL), and 7.02 uM 3H-SAM (142.45 uL; 0.55 mCi/mL) to provide a final concentration of 5 ug/mL nucleosomes, 0.2 uM cold SAM, and 0.05 uM 3H-SAM. • 6. 2.67× Quench/Bead Mixture: Per 10 mL of 2.67× Quench/Bead Mixture, combine ddH2O (9358 uL), 10 mM cold SAM (267 uL), 40 mg/mL Bead Suspension (375 uL) to provide a final concentration of 100 uM cold SAM and 0.5 mg/mL SPA beads. • 1. Dispense 100 nL/well of 100× Compound to test wells (as noted above). • 2. […] • 1. Dispense 5 uL/well of 1× Assay Buffer to column 18 (low control reactions). • 2. Dispense 5 uL/well of 2× Enzyme Solution to columns 1-17, 19-24. • 3. Spin assay plates for ˜1 minute at 500 rpm. • 4. Stack the assay plates, covering the top plate. • 5. Incubate the compound/DMSO with the enzyme for 30 minutes at room temperature. • 6. Dispense 5 uL/well of 2× Substrate Solution to columns 1-24. • 7. Spin assay plates for ˜1 minute at 500 rpm. • 8. Stack the assay plates, covering the top plate. • 9. Incubate the assay plates at room temperature for 1 hour. • 1. Dispense 5 uL/well of the 3× Quench/Bead Mixture to columns 1-24. • 2. Seal the top of each assay plate with adhesive TopSeal. • 3. Spin assay plates for ˜1 minute at 500 rpm. • 4. […] • 1. Read the assay plates on the Viewlux Plate Reader utilizing the 613 nm emission filter with a 300 s read time. Reagent addition can be done manually or with automated liquid handler. The final DMSO concentration in this assay is 1%. The positive control is in column 6; negative control is in column 18. Final starting concentration of compounds is 100 μM. Percent inhibition was calculated relative to the DMSO control for each compound concentration and the resulting values were fit using standard IC50 fitting parameters within the ABASE data fitting software package.

Row | SMILES | IC50 [nM]
1 | Cc1cc2c(c(=O)[nH]1)CNC(=O)c1cc(Cl)cc(O[C@H]3CC[C@H](N)CC3)c1C/C=C\CC2 [Example 4, (Z)-10-((trans-4-aminocyclohexyl)oxy)-12-chloro-3-methyl-5,6,15,16-tetrahydrobenzo[c]pyrido[4,3-j][1]azacyclododecine-1,14(2H,9H)-dione hydrochloride] | 2510

Same assay, conditions: Assay Protocol 1; SPA, 3H-SAM, Histone H3 of mononucleosome purified from HeLa cells; 5-member PRC2 complex; read-out: EZH2 IC50

Row | SMILES | IC50 [nM]
2 | CCN(c1cccc2c1C/C=C/CCc1cc(C)[nH]c(=O)c1CN(CCO)C2=O)C1CCOCC1 [Example 29, (E)-10-(ethyl(tetrahydro-2H-pyran-4-yl)amino)-15-(2-hydroxyethyl)-3-methyl-5,6,15,16-tetrahydrobenzo[c]pyrido[4,3-j][1]azacyclododecine-1,14(2H,9H)-dione] | 1260
3 | Cc1cc2c(c(=O)[nH]1)CNC(=O)c1cc(Cl)cc(O[C@H]3CC[C@H](N(C)C)CC3)c1C/C=C\CC2 [Example 5, (Z)-12-chloro-10-((trans-4-(dimethylamino)cyclohexyl)oxy)-3-methyl-5,6,15,16-tetrahydrobenzo[c]pyrido[4,3-j][1]azacyclododecine-1,14(2H,9H)-dione] | 2510
4 | CCN(c1cccc2c1C/C=C\C(CO)Cc1cc(C)[nH]c(=O)c1CNC2=O)C1CCOCC1 (stereo not shown) [Example 26, (Z)-10-(ethyl(tetrahydro-2H-pyran-4-yl)amino)-6-(hydroxymethyl)-3-methyl-5,6,15,16-tetrahydrobenzo[c]pyrido[4,3-j][1]azacyclododecine-1,14(2H,9H)-dione] | 12600
5 | CCN(c1cccc2c1C/C=C\CC(C)c1cc(C)[nH]c(=O)c1CNC2=O)C1CCOCC1 (stereo not shown) [Example 22, (Z)-10-(ethyl(tetrahydro-2H-pyran-4-yl)amino)-3,5-dimethyl-5,6,15,16-tetrahydrobenzo[c]pyrido[4,3-j][1]azacyclododecine-1,14(2H,9H)-dione] | 6310
6 | CCN(c1cccc2c1C/C=C\CCc1cc(C)[nH]c(=O)c1CNC2=O)C1CCOCC1 [Example 7, (Z)-10-(ethyl(tetrahydro-2H-pyran-4-yl)amino)-3-methyl-5,6,15,16-tetrahydrobenzo[c]pyrido[4,3-j][1]azacyclododecine-1,14(2H,9H)-dione hydrochloride, 0.10 1,4-dioxane solvate] | 1590
7 | CCN(c1cccc2c1C/C=C/CN(C)Cc1cc(C)[nH]c(=O)c1CNC2=O)C1CCOCC1 [Example 10, (E)-11-(ethyl(tetrahydro-2H-pyran-4-yl)amino)-3,6-dimethyl-5,6,7,10,16,17-hexahydro-1H-benzo[h]pyrido[4,3-c][1,6]diazacyclotridecine-1,15(2H)-dione] | 1000

The remaining lines, values ahead:

Row | IC50 [nM] | SMILES
8 | 316 | CCN(c1cccc2c1CCCC(CO)Cc1cc(C)[nH]c(=O)c1CNC2=O)C1CCOCC1 (stereo not shown) [Example 27, 10-(ethyl(tetrahydro-2H-pyran-4-yl)amino)-6-(hydroxymethyl)-3-methyl-6,7,8,9,15,16-hexahydrobenzo[c]pyrido[4,3-j][1]azacyclododecine-1,14(2H,5H)-dione]
9 | 501 | COc1cc(Cl)cc2c1C/C=C/CCc1cc(C)[nH]c(=O)c1CNC2=O [Example 15, (E)-12-chloro-10-methoxy-3-methyl-5,6,15,16-tetrahydrobenzo[c]pyrido[4,3-j][1]azacyclododecine-1,14(2H,9H)-dione]
10 | 501 | CCN(c1cc(Cl)cc2c1C/C=C\CCc1cc(C)[nH]c(=O)c1CNC2=O)C1CCOCC1 [Example 16, (Z)-12-chloro-10-(ethyl(tetrahydro-2H-pyran-4-yl)amino)-3-methyl-5,6,15,16-tetrahydrobenzo[c]pyrido[4,3-j][1]azacyclododecine-1,14(2H,9H)-dione hydrochloride]
11 | 158 | CCN(c1cccc2c1C/C=C/C(CO)Cc1cc(C)[nH]c(=O)c1CNC2=O)C1CCOCC1 (stereo not shown) [Example 25, (E)-10-(ethyl(tetrahydro-2H-pyran-4-yl)amino)-6-(hydroxymethyl)-3-methyl-5,6,15,16-tetrahydrobenzo[c]pyrido[4,3-j][1]azacyclododecine-1,14(2H,9H)-dione]
12 | 631 | CCN(c1cccc2c1CCCCC(C)c1cc(C)[nH]c(=O)c1CNC2=O)C1CCOCC1 (stereo not shown) [Example 24, 10-(ethyl(tetrahydro-2H-pyran-4-yl)amino)-3,5-dimethyl-6,7,8,9,15,16-hexahydrobenzo[c]pyrido[4,3-j][1]azacyclododecine-1,14(2H,5H)-dione]
13 | 501 | CCN(c1cccc2c1CCCCOCc1cc(C)[nH]c(=O)c1CNC2=O)C1CCOCC1 [Example 11, 11-(ethyl(tetrahydro-2H-pyran-4-yl)amino)-3-methyl-7,8,9,10,16,17-hexahydrobenzo[h]pyrido[4,3-c][1,6]oxaazacyclotridecine-1,15(2H,5H)-dione]
14 | 126 | CCN(c1cccc2c1C/C=C/CC(C)c1cc(C)[nH]c(=O)c1CNC2=O)C1CCOCC1 (stereo not shown) [Example 23, (E)-10-(ethyl(tetrahydro-2H-pyran-4-yl)amino)-3,5-dimethyl-5,6,15,16-tetrahydrobenzo[c]pyrido[4,3-j][1]azacyclododecine-1,14(2H,9H)-dione]
15 | 794 | CCN(c1cccc2c1C/C=C\COc1cc(C)[nH]c(=O)c1CNC2=O)C1CCOCC1 [Example 13, (Z)-10-(ethyl(tetrahydro-2H-pyran-4-yl)amino)-3-methyl-6,9,15,16-tetrahydro-1H-benzo[g]pyrido[4,3-b][1,5]oxaazacyclododecine-1,14(2H)-dione]
16 | 631 | CCN(c1cccc2c1CCCC(O)CCc1cc(C)[nH]c(=O)c1CNC2=O)C1CCOCC1 (stereo not shown) [Example 28, 11-(ethyl(tetrahydro-2H-pyran-4-yl)amino)-7-hydroxy-3-methyl-5,6,7,8,9,10,16,17-octahydro-1H-benzo[c]pyrido[4,3-k][1]azacyclotridecine-1,15(2H)-dione]
